For experiment [1], the target named is T1, Alpha-1A adrenergic receptor (Homo sapiens, UniProt P35348).
T1 sequence (P35348 whole entry): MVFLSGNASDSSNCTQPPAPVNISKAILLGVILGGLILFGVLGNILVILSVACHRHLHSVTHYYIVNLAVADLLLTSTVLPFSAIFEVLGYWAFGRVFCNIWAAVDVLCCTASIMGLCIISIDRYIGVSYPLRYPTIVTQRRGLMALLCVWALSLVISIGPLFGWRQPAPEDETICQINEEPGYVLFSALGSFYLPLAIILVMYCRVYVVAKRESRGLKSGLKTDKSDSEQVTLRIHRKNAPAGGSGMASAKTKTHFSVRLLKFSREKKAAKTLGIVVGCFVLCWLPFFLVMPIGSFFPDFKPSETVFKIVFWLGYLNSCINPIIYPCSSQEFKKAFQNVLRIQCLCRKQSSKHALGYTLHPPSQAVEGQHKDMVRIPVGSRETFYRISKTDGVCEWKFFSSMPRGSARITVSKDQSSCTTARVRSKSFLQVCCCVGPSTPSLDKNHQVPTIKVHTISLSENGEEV
The format is functional, cell-based.

A further experiment addresses T2, Progesterone receptor (Homo sapiens, UniProt P06401).
T2 sequence (P06401 whole entry): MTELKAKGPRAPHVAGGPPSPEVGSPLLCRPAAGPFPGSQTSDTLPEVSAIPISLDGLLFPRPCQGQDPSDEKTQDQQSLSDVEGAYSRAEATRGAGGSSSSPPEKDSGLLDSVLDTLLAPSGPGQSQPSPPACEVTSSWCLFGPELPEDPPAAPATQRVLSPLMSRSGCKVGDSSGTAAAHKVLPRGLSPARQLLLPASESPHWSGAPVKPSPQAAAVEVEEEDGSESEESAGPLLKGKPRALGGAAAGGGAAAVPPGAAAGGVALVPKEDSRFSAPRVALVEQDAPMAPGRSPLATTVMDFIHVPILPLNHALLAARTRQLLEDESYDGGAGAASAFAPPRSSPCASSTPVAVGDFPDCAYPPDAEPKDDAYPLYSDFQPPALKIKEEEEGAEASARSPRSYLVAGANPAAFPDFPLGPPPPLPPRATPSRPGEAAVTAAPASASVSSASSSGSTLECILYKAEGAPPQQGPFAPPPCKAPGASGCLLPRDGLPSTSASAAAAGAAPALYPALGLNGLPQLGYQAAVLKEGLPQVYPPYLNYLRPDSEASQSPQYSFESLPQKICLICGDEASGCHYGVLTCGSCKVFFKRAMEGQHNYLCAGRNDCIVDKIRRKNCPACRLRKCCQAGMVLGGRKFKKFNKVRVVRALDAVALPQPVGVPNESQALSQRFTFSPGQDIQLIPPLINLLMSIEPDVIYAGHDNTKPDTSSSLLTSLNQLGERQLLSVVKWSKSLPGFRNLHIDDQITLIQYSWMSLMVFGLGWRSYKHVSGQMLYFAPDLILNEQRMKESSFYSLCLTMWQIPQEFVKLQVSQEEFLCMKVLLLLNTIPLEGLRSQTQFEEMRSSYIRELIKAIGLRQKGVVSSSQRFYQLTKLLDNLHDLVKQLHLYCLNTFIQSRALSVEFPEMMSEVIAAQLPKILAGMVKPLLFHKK

The target of experiment [2] is T1, Alpha-1A adrenergic receptor. In kind it is functional, cell-based. This is another data set of the same source.
The target in the next experiment is Mu-type opioid receptor (Homo sapiens, UniProt P35372). The experiment can be described thus: biochemical. In kind it is functional.
Sequence of Mu-type opioid receptor (P35372 whole entry): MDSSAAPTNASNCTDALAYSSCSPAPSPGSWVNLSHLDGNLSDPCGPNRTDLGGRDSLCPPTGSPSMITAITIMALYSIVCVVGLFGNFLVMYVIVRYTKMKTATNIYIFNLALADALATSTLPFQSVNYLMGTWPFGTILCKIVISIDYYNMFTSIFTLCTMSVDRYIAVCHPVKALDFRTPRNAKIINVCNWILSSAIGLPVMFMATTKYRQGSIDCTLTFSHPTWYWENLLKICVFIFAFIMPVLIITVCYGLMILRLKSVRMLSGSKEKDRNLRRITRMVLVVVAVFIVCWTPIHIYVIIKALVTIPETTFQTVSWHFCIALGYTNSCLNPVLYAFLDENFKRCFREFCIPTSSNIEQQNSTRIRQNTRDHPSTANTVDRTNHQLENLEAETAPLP
Another experiment addresses T3, B2 bradykinin receptor (Homo sapiens, UniProt P30411).
T3 sequence (P30411 whole entry): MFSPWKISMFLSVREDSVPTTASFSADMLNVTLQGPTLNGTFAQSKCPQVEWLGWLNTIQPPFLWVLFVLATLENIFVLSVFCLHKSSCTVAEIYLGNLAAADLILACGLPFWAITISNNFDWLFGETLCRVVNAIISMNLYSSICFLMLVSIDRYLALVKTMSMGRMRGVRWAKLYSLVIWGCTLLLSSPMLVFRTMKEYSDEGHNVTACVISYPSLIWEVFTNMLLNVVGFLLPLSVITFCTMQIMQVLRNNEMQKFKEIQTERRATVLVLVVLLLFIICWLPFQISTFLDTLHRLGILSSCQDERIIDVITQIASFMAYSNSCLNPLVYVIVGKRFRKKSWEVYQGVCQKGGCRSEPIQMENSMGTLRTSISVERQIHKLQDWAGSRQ

The target in experiment [3] is Beta-2 adrenergic receptor (Homo sapiens, UniProt P07550).
Sequence of Beta-2 adrenergic receptor (P07550 whole entry): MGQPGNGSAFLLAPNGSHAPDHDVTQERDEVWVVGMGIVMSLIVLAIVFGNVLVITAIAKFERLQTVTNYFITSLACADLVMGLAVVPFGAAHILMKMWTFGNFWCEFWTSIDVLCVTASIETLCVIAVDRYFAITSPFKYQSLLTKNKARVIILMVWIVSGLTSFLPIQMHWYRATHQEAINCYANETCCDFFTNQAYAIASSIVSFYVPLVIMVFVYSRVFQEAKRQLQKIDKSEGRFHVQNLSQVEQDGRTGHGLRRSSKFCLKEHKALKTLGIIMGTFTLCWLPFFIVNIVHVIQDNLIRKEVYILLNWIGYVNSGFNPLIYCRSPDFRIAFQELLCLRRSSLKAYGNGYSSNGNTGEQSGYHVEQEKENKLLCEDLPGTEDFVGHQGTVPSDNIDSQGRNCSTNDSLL
A further experiment deals with T4, Thromboxane A2 receptor (Homo sapiens, UniProt P21731).
T4 sequence (P21731 whole entry): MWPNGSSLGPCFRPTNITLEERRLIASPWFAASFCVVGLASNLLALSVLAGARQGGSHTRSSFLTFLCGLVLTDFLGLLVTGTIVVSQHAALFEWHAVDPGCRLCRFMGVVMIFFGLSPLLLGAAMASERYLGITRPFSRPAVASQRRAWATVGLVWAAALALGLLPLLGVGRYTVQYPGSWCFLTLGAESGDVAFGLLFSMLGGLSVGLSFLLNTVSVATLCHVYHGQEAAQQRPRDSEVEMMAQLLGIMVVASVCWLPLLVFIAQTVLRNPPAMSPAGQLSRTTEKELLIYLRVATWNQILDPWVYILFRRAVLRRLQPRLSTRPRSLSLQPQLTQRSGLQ

Experiment [4] has as its target T5, Cholecystokinin receptor type A (Homo sapiens, UniProt P32238).
T5 sequence (P32238 whole entry): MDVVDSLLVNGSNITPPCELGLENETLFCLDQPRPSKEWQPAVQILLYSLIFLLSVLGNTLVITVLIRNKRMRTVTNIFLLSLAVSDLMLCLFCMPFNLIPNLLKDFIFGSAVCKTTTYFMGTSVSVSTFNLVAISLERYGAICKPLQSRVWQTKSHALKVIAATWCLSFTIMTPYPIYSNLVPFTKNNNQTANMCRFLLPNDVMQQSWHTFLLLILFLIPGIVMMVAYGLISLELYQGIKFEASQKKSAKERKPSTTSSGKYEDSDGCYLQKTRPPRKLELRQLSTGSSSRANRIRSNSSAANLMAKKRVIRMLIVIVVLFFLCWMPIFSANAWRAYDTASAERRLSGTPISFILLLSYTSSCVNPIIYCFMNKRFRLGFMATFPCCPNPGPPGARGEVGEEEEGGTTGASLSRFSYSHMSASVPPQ

The next experiment concerns the target Vasopressin V2 receptor (Homo sapiens, UniProt P30518).
The target in experiment [5] is 5-hydroxytryptamine receptor 2B (Homo sapiens, UniProt P41595). In kind it is functional, cell-based.
Sequence of 5-hydroxytryptamine receptor 2B (P41595 whole entry): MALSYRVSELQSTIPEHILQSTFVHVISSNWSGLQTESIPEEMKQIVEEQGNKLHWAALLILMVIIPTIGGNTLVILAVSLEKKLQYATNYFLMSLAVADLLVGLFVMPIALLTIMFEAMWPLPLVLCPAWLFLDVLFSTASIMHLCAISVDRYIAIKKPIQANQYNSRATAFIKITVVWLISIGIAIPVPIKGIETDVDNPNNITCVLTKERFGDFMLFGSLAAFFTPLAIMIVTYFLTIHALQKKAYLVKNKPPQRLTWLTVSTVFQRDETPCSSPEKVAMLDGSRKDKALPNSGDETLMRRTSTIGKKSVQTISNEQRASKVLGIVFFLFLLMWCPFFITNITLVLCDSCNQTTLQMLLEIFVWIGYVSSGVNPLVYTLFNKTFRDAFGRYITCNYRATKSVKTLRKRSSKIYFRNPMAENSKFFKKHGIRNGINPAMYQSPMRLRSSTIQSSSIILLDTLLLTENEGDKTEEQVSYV
Further: assay procedure not described here.

Sequence of Vasopressin V2 receptor (P30518 whole entry): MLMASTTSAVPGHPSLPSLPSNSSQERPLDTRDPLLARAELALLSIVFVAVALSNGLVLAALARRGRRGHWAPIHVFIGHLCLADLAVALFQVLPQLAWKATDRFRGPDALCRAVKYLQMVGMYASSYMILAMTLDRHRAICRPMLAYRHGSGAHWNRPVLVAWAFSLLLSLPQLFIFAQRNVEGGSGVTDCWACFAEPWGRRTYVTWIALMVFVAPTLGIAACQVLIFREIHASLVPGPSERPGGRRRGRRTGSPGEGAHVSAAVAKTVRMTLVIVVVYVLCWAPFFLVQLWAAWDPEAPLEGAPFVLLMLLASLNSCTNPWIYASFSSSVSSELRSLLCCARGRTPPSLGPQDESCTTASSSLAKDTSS

Turning to `Cc1cc2c(cc1S(N)(=O)=O)S(=O)(=O)CCC2`, the AC50 (in [1]; on Progesterone receptor) was more than 30 µM each time.
For the compound `C[C@H](N[C@@H](CCc1ccccc1)C(=O)O)C(=O)N1Cc2ccccc2C[C@H]1C(=O)O`, the AC50 (in [1]; at Progesterone receptor) was more than 30 µM in each case.
In the case of `O=C(O)[C@@H]1C[C@@H](O)CN1`, the AC50 (in experiment [1]; at Progesterone receptor) was more than 30 µM throughout.
As to `CC1(C)S[C@@H]2[C@H](/N=C/N3CCCCCC3)C(=O)N2[C@H]1C(=O)O` [AMDINOCILLIN], the AC50 (in experiment [1]; at Progesterone receptor) was more than 30 µM throughout.
On to `CC(=O)[C@]1(N)Cc2c(O)c3c(c(O)c2[C@@H](O[C@H]2C[C@H](O)[C@H](O)CO2)C1)C(=O)c1ccccc1C3=O` [AMRUBICIN], for which the AC50 in [1] was more than 3 µM; on Progesterone receptor, more than 30 µM.
Turning to `NC(=O)[C@@H]1CC[C@@H]2CN1C(=O)N2OS(=O)(=O)O` [AVIBACTAM], the AC50 (in experiment [1]; on Progesterone receptor) was more than 30 µM each time.
`CC(=O)OC[C@H]1O[C@@H](n2ncc(=O)[nH]c2=O)[C@H](OC(C)=O)[C@@H]1OC(C)=O` [AZARIBINE]: the AC50 (in [1]; at Progesterone receptor) was more than 30 µM throughout.
Regarding `CC(C)(C)NC(=O)N[C@H](C(=O)N1C[C@H]2[C@@H]([C@H]1C(=O)NC(CC1CCC1)C(=O)C(N)=O)C2(C)C)C(C)(C)C` (some centres undefined) [BOCEPREVIR], the AC50 (in experiment [1]; on Progesterone receptor) was more than 30 µM in each case.
On to `NC[C@H]1CC[C@H](C(=O)Oc2ccc(CCC(=O)O)cc2)CC1` [CETRAXATE], for which the AC50 (in [2]; at Mu-type opioid receptor; on Progesterone receptor) was more than 30 µM in each case.
Take `C=C1CC[C@H](O)C/C1=C/C=C1\CCC[C@]2(C)[C@@H]([C@H](C)CCCC(C)C)CC[C@@H]12` [CHOLECALCIFEROL]: the AC50 in experiment [1] was more than 30 µM.
As for `C[C@H](CCC(=O)O)[C@H]1CC[C@H]2[C@@H]3[C@H](O)C[C@@H]4C[C@H](O)CC[C@]4(C)[C@H]3C[C@H](O)[C@]12C` [CHOLIC ACID], the AC50 (in [1]; on Progesterone receptor) was more than 30 µM each time.
Regarding `Cc1ncc2c(c1O)COC2c1ccc(Cl)cc1` (centres undefined) [CICLETANINE], the AC50 (in experiment [1]; on Progesterone receptor) was more than 30 µM in each case.
For `Cc1cn([C@H]2O[C@@H](CO)[C@H](O)[C@H]2F)c(=O)[nH]c1=O` [CLEVUDINE], the AC50 (in [1]; on Progesterone receptor) was more than 30 µM throughout.
On to `N#Cc1ccc(Oc2ccc3c(c2)COB3O)cc1` [CRISABOROLE], for which the AC50 in experiment [1] is 4.32 µM; on Progesterone receptor, more than 30 µM.
As for `CC(=O)O[C@]1(C(C)=O)CC[C@H]2[C@@H]3C=C(Cl)C4=CC(=O)[C@@H]5C[C@@H]5[C@]4(C)[C@H]3CC[C@@]21C` [CYPROTERONE ACETATE], the AC50 at B2 bradykinin receptor was more than 30 µM; in experiment [3], more than 10 µM; in experiment [1] it was more than 3 µM; on Thromboxane A2 receptor, more than 30 µM; in [4], more than 30 µM; at Vasopressin V2 receptor, more than 30 µM.
`CC(=O)[C@H]1CC[C@H]2[C@@H]3C=CC4=CC(=O)CC[C@@]4(C)[C@@H]3CC[C@]12C` [DYDROGESTERONE]: in experiment [1], the AC50 worked out at 29.2 µM.
As to `CC(=O)O[C@H]1Cc2ccccc2N(C(N)=O)c2ccccc21` [ESLICARBAZEPINE ACETATE], the AC50 (in [1]; at Progesterone receptor) was more than 30 µM in each case.
In experiment [1], `CC(O)(P(=O)(O)O)P(=O)(O)O` [ETIDRONIC ACID] showed an AC50 of more than 30 µM.
Consider `C[C@@H]1C[C@H]2[C@@H]3C[C@H](F)C4=CC(=O)C=C[C@]4(C)[C@@]3(F)[C@@H](O)C[C@]2(C)[C@@]1(OC(=O)c1ccco1)C(=O)SCF` [FLUTICASONE FUROATE], for which the AC50 in experiment [2] is more than 30 µM; on B2 bradykinin receptor, more than 10 µM; in [3] it was more than 10 µM; in [1] it was more than 30 µM; in experiment [5] it was more than 10 µM; at Thromboxane A2 receptor it was more than 10 µM. Further, the AC50 (in experiment [4]; on Vasopressin V2 receptor) was more than 10 µM each time.
As to `Cc1ccc(S(=O)(=O)NC(=O)NC2CCCCC2)cc1` [GLYCYCLAMIDE], the AC50 (in [1]; at Progesterone receptor) was more than 30 µM throughout.
As for `CN1CCCN(C(c2ccccc2)c2ccc(Cl)cc2)CC1` (centres undefined) [HOMOCHLORCYCLIZINE], the results for the AC50 (in experiment [1]; on Progesterone receptor) were 2.89 µM and more than 30 µM, respectively.
For `CC(=O)OCC(=O)[C@@]1(O)CC[C@H]2[C@@H]3CCC4=CC(=O)CC[C@]4(C)[C@H]3[C@@H](O)C[C@@]21C` [HYDROCORTISONE ACETATE] the same measures were more than 30 µM and 7.67 µM.
Take `CC(COc1ccccc1)NC(C)C(O)c1ccc(O)cc1` (centres undefined) [ISOXSUPRINE]: the results for the AC50 (in experiment [1]; on Progesterone receptor) were 1.04 µM and more than 30 µM, respectively.
Consider `O=C(CCC/C=C\C[C@@H]1[C@@H](CC[C@@H](O)CCc2ccccc2)[C@H](O)C[C@@H]1O)OCCCCO[N+](=O)[O-]` [LATANOPROSTENE BUNOD], for which the AC50 was more than 10 µM in [1] and more than 30 µM at Progesterone receptor.
Turning to `Cc1oc(=O)oc1COC(=O)[C@@H]1N2C(=O)[C@@H](NC(=O)[C@H](N)c3ccccc3)[C@H]2SC1(C)C` [LENAMPICILLIN], the AC50 was 24.5 µM in experiment [1] and more than 30 µM at Progesterone receptor.
Consider `CC1(CCN2CCCCC2)C(=O)CCc2ccccc21` (centres undefined) [NEPINALONE], for which the half-maximal activity concentration (AC50) (in [1]; at Progesterone receptor) was more than 30 µM each time.
Turning to `COC(=O)C[C@](O)(CCCC(C)(C)O)C(=O)O[C@@H]1C(OC)=C[C@]23CCCN2CCc2cc4c(cc2[C@H]13)OCO4` [OMACETAXINE MEPESUCCINATE], the AC50 (in [1]; at Progesterone receptor) was more than 30 µM each time.
In the case of `COc1cccc(C(=O)CCN[C@@H](C)[C@H](O)c2ccccc2)c1` [OXYFEDRINE], the values for the AC50 (in experiment [1]; at Progesterone receptor) were 0.205 µM and more than 30 µM, respectively.
In the case of `O=S1(=O)CCN(CN2CCS(=O)(=O)NC2)CN1` [TAUROLIDINE], the AC50 (in experiment [2]; in [5]; on Thromboxane A2 receptor; at Mu-type opioid receptor; at Progesterone receptor) was more than 30 µM throughout.

Usually AC50 stands for the midpoint of the concentration-response curve, whichever way the signal moves.
